# How the values were obtained:
# [1] = system: glioblastoma cell line U87-MG; experiment: in vitro colony assay (survival fraction) after proton beam irradiation; conditions: for cytotoxicity / cell kill compared to the proton beam treatment alone: 8 Gye single fraction protons plus compound, U87 cells exposed 96 hours before irradiation
# Description: FIG. 1 is a graphic representation of the dose of irradiation (x-axis) versus the log survival fraction (y-axis) of log phase U87 human glioblastoma cells. Three groups were used. […] This molecule is synthesized by replacing the 2 position of the aromatic ring of the nitrogenous base with oxygen-18. When these cells are treated with protons, there is a chemical transmutation at the atomic level where upon the oxygen-18 atom is changed into radioactive fluorine-18.
# Physiologic serum concentrations in normal and cancer patients the physiologic serum concentration is ˜0.3-1.2 μM. The cells were irradiated with 2 and 8 Gye with 160 MeV protons single fraction and cell death/survival was determined using a colony assay and calculation of survival fraction.
# [2] = large doses, human cancer patients; cited from earlier work
Compound,"increased cell kill ([1]; 0.5 microgram HTd exposed for 96 hours in vitro, 8 Gye single fraction protons, versus protons alone (FIG. 1))",cytotoxicity / cell kill compared to the proton beam treatment alone [1],cytotoxicity / cell kill compared to the proton beam treatment alone ([1]; listed as heavy thymidine),radiation sensitization ([1]; plus a single dose of 8 Gye of protons),"effect on cell survival ([1]; same concentration X time exposure (0.5, 96 hours) plus 8 Gye protons)",concentrations in the serum achieved [2]
C2-^18O-Thymidine [2-HTd],about half a log,increased cytotoxicity,greater cell kill,proton specific radiation sensitization,,
"Cc1cn([C@H]2C[C@H](O)[C@@H](CO)O2)c(=O)[nH]c1=O [Thymidine, reference compound]",,,,,no effect,milli-molar range
